Test results from patent US9295722B2, “Bacterial glycolipid activation of CD1d-restricted NKT cells” (priority 2005, dated 2016).

Legend:
Type in all cases: cell-based
NKT cells = test: activation of NKT cells in vitro by synthetic glycolipids
Text: Activation of NKT cells may be measured in vitro or ex vivo by any suitable method. An example of an in vitro test permitting evaluation of NKT cell activation is co-culturing NKT cells with antigen presenting cells (APC), such as dendritic cells (DC), in the presence of a bacterial glycolipid activator or putative activator, and subsequently assaying for IFN-γ or other secreted cytokines in the supernatant. Alternatively, activation of NKT cells can be measured ex vivo by administering a bacterial glycolipid antigen to a subject or by administering CD1d^+ antigen presenting cells after ex vivo contact with bacterial glycolipids to a subject. The NKT cells from these subjects can be isolated by, e.g., CD1d-tetramer staining and gating via flow cytometry, and subsequently assayed for surface CD69 (early T-cell activation antigen) and/or intracellular IFN-γ by suitable methods.
Some representative examples of suitable bacterial glycolipids for complexing with CD1d molecules and activating NKT cells are depicted in FIG. 5. […] The remaining compounds depicted in FIG. 5 were rationally designed based on the following features determined to be common among glycolipids capable of activating NKT cells: 1) an alpha-type glycosidic linkage and 2) oxidation at the 6-position on the carbohydrate moiety of the glycolipid.

[1] = tested on: human Vα24-Jα18 NKT cells; test: human Vα24-Jα18 NKT cells co-cultured with DC pulsed with synthetic glycolipid; conditions: for IFN-γ secretion: DC pulsed with 0.001 to 1000 ng/mL glycolipid, 48 hours
Procedure: (§1) Stimulation assays were performed with whole spleen cells (5×10^5 per 200 μl well) or with purified T cells and antigen presenting cells. T cell populations used in the assays comprised sorted CD1d-Gal-Cer+ mouse spleen cells (5×10^4 per 200 μl well), human peripheral blood lymphocytes (PBL) (5×10^5 per 200 μl well) (obtained after Ficoll centrifugation of heparinized blood) or human NKT cell lines (2.5×10^5 per 200 μl well). Human Vα24 NKT cells were derived from PBL stimulated with αGal-Cer and were maintained by repeated rounds of stimulation with PHA and IL-2 in the presence of irradiated PBMC and EBV transformed B cells in vitro. Antigen presenting cells were dendritic cells that were derived from bone marrow, stimulated with GMCSF/IL-4 (2 ng/mL and 5 ng/mL, Biosource) and cultured at 2.5×10^5 per 200 μl well for mouse assays, and irradiated allogeneic human PBMC fresh or cultured for 5 days with recombinant human GMCSF/IL-4, ([…] of each cytokine, R&D Systems) (2×10^5 per 200 μl well) for human assays. Cells were washed twice and starved for 6 hours in medium alone before addition to the stimulation experiments.
(§2) NKT cells were stimulated with heat-killed bacteria as indicated above for 48 hrs in 96 well round bottom plates in RPMI 1640 (Biofluids) supplemented with glutamine, antibiotics, 5×10^−5 M 2-ME and 10% FCS (mouse studies) or 5% AB serum (human studies). Concentrations of mouse and human IFN-γ. in the supernatant were measured at 48 hours using the respective ELISA kits (BD Bioscience, lower detection limit of 12.5 pg/ml).
(§3) The immunological properties of the above compounds in NKT cells were measured. Human Vα24-Jα18 NKT cells and fresh purified mouse NKT cells were co-cultured with DC pulsed with αGal-Cer or synthetic glycolipid at concentrations ranging from 0.001 to 1000 ng/mL. IFN-γ production was measured at 48 hours as described above.

mouse NKT cells [2] = test: fresh purified mouse NKT cells co-cultured with DC pulsed with synthetic glycolipid; conditions: for IFN-γ secretion: DC pulsed with 0.001 to 1000 ng/mL glycolipid, 48 hours
Procedure: as §1, §2, §3

human NKT cells [3] = test: CD1d-glycolipid tetramer staining of human NKT cells
Procedure: (§4) At 6 days post stimulation, CD1d-αGal-Cer, CFSE and αB220 (BD Pharmingen) labeling and staining procedures were performed and cells were analyzed by FACS. To generate CD1d-αGal-Cer tetramers, a mixture of 5 μl of αGal-Cer (from 1 mg/ml stock solution in DMSO), 10 μl of PBS 0.5% Tween 20, 10 μl of biotinylated CD1d (1 mg/ml), and 75 μl of PBS was incubated at 37° C. for 1 hr, and lipid-loaded CD1d was purified by centrifugation dialysis and complexed with streptavidin-APC. (Benlagha K. et al., J. Exp. Med. 191, 1895-1903 (2000).) Cells were analyzed on a FACSCalibur (BD Biosciences) with CellQuest software.
(§5) CD1d tetramers were prepared as described in Example 1 using synthetic glycolipids PBS 30, PBS 59 and PBS 50 and αGal-Cer, and were used to stain human NKT cells and mouse spleen cells.

mouse NKT cells [4] = test: CD1d-glycolipid tetramer staining of mouse spleen cells
Procedure: as §4, §5

mouse NKT cells [5] = test: mouse CD1d tetramer-sorted NKT cells co-cultured with bone marrow derived DC, IFN-γ ELISA; conditions: co-cultured with CD1+/− or CD1−/− DC; 48 hrs
Procedure: (§6) Bacterial strains Sphingomonas capsulata (ATCC 14666) and Salmonella typhimurium R71 were grown in Mueller-Hinton Agar. Ehrlichia muris were prepared as described by Ismail N et al., J. Immunol. 172, 1786-1800 (2004), incorporated herein by reference. Bacteria were heat killed by 2-hour exposure to 74° C. and 2.5-5×10^6 cfu equivalent/well were used for in vitro stimulation.
Stimulation assays were performed with whole spleen cells (5×10^5 per 200 μl well) or with purified T cells and antigen presenting cells. […]
as §2
Whole spleen cells co-cultured with DC of genotype MyD88^−/−, Trif^lps2/lps2 and MyD88^−/−Trif^lps2/lps2 (lacking one or the two adaptors MyD88 and TRIF for TLR signaling) or CD1^−/− were stimulated for 48 hours with 5×10^6 heat killed Salmonella, Sphingomonas or Ehrlichia. Concentrations of mouse and human IFN-γ. in the supernatant were measured at 48 hours using the respective ELISA kits (BD Bioscience, lower detection limit of 12.5 pg/ml).

human NKT cells [6] = test: human NKT cells co-cultured with PBMC-derived DC, IFN-γ ELISA; conditions: blocking with 1 μg/mL anti-CD1d antibodies or control IgG1
Procedure: as §6
Stimulation assays were performed with whole spleen cells (5×10^5 per 200 μl well) or with purified T cells and antigen presenting cells. T cell populations used in the assays comprised sorted CD1d-Gal-Cer+ mouse spleen cells (5×10^4 per 200 μl well), human peripheral blood lymphocytes (PBL) (5×10^5 per 200 μl well) (obtained after Ficoll centrifugation of heparinized blood) or human NKT cell lines (2.5×10^5 per 200 μl well). […]
as §2

α-glucuronosylceramide [PBS 30]
activation of NKT cells (NKT cells): found to activate NKT cells
NKT cell proliferation [1]: strongly activated
IFN-γ secretion [1]: strongly activated
NKT cell proliferation (mouse NKT cells [2]): strongly activated
IFN-γ secretion (mouse NKT cells [2]): strongly activated
human NKT cells stained by CD1d-glycolipid tetramers (human NKT cells [3]): all
mouse NKT cells stained by CD1d-glycolipid tetramers (mouse NKT cells [4]): ~25%

α-galacturonosylceramide [PBS 59]
activation of NKT cells (NKT cells): found to activate NKT cells
NKT cell proliferation [1]: strongly activated
IFN-γ secretion [1]: strongly activated
NKT cell proliferation (mouse NKT cells [2]): strongly activated
IFN-γ secretion (mouse NKT cells [2]): strongly activated

CCCCCCCCCCCCCCCCCCCCCCCCCC(=O)N[C@@H](CO[C@H]1O[C@H](CO)[C@H](O)[C@H](O)[C@H]1O)[C@H](O)[C@H](O)CCCCCCCCCCCCCC [αGal-Cer, α-galactosylceramide]
IFN-γ secretion by mouse NKT cells (mouse NKT cells [5]): secreted IFN-γ in a CD1d-dependent manner
IFN-γ secretion by human NKT cells (human NKT cells [6]): CD1d-dependent IFN-γ secretion

β-glucuronosylceramide [PBS 50, reference compound]
activation of NKT cells (NKT cells): do not activate NKT cells
NKT cell proliferation [1]: did not
IFN-γ secretion [1]: did not
NKT cell proliferation (mouse NKT cells [2]): did not
IFN-γ secretion (mouse NKT cells [2]): did not
